Biological target: Nicotinamide phosphoribosyltransferase (Homo sapiens, UniProt P43490)
Assay: NAMPT Enzyme Activating Effect (In Vitro Cell-Free Enzyme Assay

Sequence of Nicotinamide phosphoribosyltransferase (P43490 whole entry): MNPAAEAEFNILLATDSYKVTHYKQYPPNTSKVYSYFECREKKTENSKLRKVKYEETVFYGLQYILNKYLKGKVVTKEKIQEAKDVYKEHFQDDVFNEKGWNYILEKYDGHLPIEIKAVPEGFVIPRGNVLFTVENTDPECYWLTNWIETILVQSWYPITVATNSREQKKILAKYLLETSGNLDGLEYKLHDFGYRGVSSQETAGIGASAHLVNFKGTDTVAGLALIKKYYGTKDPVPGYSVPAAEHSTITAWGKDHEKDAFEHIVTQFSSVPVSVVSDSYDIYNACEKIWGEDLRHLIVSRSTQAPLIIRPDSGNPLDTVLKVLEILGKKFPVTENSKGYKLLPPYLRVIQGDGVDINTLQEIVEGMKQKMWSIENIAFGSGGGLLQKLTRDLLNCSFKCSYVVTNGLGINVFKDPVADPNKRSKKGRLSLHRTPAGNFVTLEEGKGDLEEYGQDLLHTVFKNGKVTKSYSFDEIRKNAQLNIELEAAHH

With `O=C(NCc1ccncc1)Nc1ccn2nc(-c3ccccc3)nc2c1` [US11918568, Example 15] as the compound, how does the EC50 read?
Its EC50 is 0.23 µM.

— BindingDB's records for patent US11918568 (Sanford Burnham Prebys Medical Discovery Institute, 2024)
